The term koff denotes the first-order rate constant of dissociation. A high value points to a short-lived complex. A word on the IC50: it is the concentration that inhibits the measured activity by half. Low values mean higher potency, high ones lower potency.

Assay [1] concerns the target T1, cdHDAC4wt (Homo sapiens, UniProt P56524).
T1 construct: consists of 410 amino acids (human HDAC4 T648-T1057) and has a molecular weight of 44.2 kDa; His6-SUMO (cleaved yes); made in house; host or cells: E. coli (BL21) DE3 pLysS, pET14b vector
Kind of assay: Association kinetics (semi continuous enzyme activity assay, kobs vs inhibitor concentration). To be noted: for residence time: 1/koff (two step) or 1/k−3 (one step), read-out: RT (KF), residence time from kinetic fit; for forward isomerization rate constant (k2) / koff / kon: two step model; for forward isomerization rate constant (k2) / koff: isomerization rate; for koff: y-axis intercept; for Ki: two step induced fit model, read-out: K1 (equilibrium constant of initial encounter complex); for y-intercept of kobs plot (k−3): linear regression; for y-intercept of kobs plot (k−3) / k3 / k−3: one step model; for k3: slope of kobs vs ligand concentration; for k−3: y-intercept. The format is biochemical. Here is the method: A serial dilution of inhibitor beginning at 10-fold of respective IC50-value in assay buffer (25 mM Tris-HCl, pH 8.0, 75 mM KCl, 0.001% Pluronic F-127) was made in a black 96-well microtiter half-area plate (Greiner, Kremsmuenster, Austria). The dilutions were added to 3 nM cdHDAC4wt. Shortly after, the reaction was initiated by adding 20 µM Boc-Lys{TFA}-7-Amino-4-methylcoumarin (Bachem, Bubendorf, Switzerland) as substrate. […] Finally 0.4 mg/mL trypsin was added to split the deacetylated substrate in the fluorescent product which was measured at 450 nm (λEx = 350 nm) (PherStar Plus, BMG Labtech, Ortenberg, Germany). […] The standardized RFUs were plotted against the incubation time. […] Due to this knowledge the data were fitted via non linear regression with GraphPad Prism program to the following equation by Copeland [27]:(2) Y=νs·t+νi−νs/kobs·(1−e^(−kobs·t))+d where vi is the initial slope, vs is the second lower slope, kobs is the respective rate constant, t is time and d the correction for possible data offset.
Afterwards kobs values were plotted against their respective inhibitor concentration.

The target in assay [2] is T2, cdHDAC4wt (catalytic domain of human wild type histone deacetylase 4) (Homo sapiens, UniProt P56524).
T2 construct: consists of 410 amino acids (human HDAC4 T648-T1057) and has a molecular weight of 44.2 kDa; His6-SUMO (cleaved yes); made in house; host or cells: E. coli (BL21) DE3 pLysS, pET14b vector
T2 sequence (P56524 648-1057): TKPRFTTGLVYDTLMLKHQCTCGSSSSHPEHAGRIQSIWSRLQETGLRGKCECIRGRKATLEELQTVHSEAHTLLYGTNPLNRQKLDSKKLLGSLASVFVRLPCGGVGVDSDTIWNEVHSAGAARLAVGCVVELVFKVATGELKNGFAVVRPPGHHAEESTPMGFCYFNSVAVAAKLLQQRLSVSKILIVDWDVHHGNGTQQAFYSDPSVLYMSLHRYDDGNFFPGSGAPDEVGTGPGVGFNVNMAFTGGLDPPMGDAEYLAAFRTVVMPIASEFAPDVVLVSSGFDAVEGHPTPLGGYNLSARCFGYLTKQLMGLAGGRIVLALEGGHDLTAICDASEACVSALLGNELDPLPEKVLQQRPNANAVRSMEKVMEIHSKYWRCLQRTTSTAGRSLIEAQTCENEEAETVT
Nature of the assay: IC50 determination, enzyme activity assay with Boc-Lys{TFA}-AMC. In kind it is biochemical. As to conditions: mean ± SD, N = 3. The protocol:
Afterwards the enzymatic reaction was initiated by the addition of 20 µM Boc-Lys{TFA}-7-Amino-4-methylcoumarin (Bachem, Bubendorf, Switzerland) as substrate. […] The deacetylated substrate was converted into a fluorescent product by the addition of 0.4 mg/mL trypsin (AppliChem, Darmstadt, Germany). The release of fluorogenic substrate was followed in a microplate reader (PherStar Plus, BMG Labtech, Ortenberg, Germany) at 450 nm (λEx = 350 nm) and correlated to enzyme activity.
All incubations steps were performed for 60 min at 30 °C and 450 rpm.

Assay [3] deals with T1, cdHDAC4wt. Nature of the assay: Reversibility assay via rapid dilution; residence time from reversibility data. The format is biochemical. As to conditions: first order dissociation assumed; read-out: RT (RD), residence time from rapid dilution. Here is the method: Rapid dilution was performed by diluting the incubated mixture 100-fold with substrate (Boc-Lys{TFA}-7-Amino-4-methylcoumarin (Bachem, Bubendorf, Switzerland)) with the final substrate concentration being 20 µM. […] A positive control without TZD ligand and a blank without enzyme and TZD ligand were also carried out. […] Once again the final substrate concentration was 20 µM. […] The deacetylated substrate was converted into a fluorescent product by the addition of 0.4 mg/mL trypsin (AppliChem, Darmstadt, Germany). The release of fluorogenic substrate was followed in a microplate reader (PherStar Plus, BMG Labtech, Ortenberg, Germany) at 450 nm (λEx = 350 nm) and correlated the positive control. […] All incubations steps were performed for 60 min at 30 °C and 450 rpm. The substrate was preheated to 30 °C before the rapid dilution step.
The reciprocal values for k equals the residence time of the respective TZD ligand (residence time = koff^−1), which can be compared with the residence times gained from association data.

For assay [4], the target named is T1, cdHDAC4wt. Nature of the assay: Michaelis Menten kinetics for mode of action. In kind it is biochemical. As to conditions: increasing Km, essentially unchanged vmax with increasing compound concentration.
Protocol: For E677A, F812A, C813S, F871A and H976Y (GoF) 5 nM enzyme were used. […] Signal was developed for 30 min at room temperature and the fluorescence was measured at 450 nm (λEx = 350 nm) in a PherStar Plus (BMG Labtech, Ortenberg, Germany) fluorescence plate reader. […] Afterwards, the product concentration was plotted against the time and v0 (µM/min) was calculated from the resulting slopes. Now the initial velocity was plotted against the substrate concentration and Km was calculated using a Michaelis Menten-Fit in GraphPad Prism. The value of vmax is neglected because enzyme concentration and purity are too inconsistent between the mutant variant to calculate this value appropriate.
For assay [5], the system named is cdHDAC4 mutant variants. Kind of assay: Mutational study: Ki (Cheng-Prusoff from IC50) against cdHDAC4 mutant variants relative to wild type. As to conditions: exchange of S758, D759, E764, T808, F812, F871 and L943. In kind it is biochemical, human. The protocol:
To gain an thorough knowledge of the most involved amino acids necessary for molecular recognition of TZD ligands to cdHDAC4wt, a comprehensive mutational study was designed. Amino acids flanking the active site binding pocket in the closed (Figure 5A) and open (Figure 5B) conformation of the enzyme were systematically exchanged and IC50-values of a subset of 25 TZDs were determined against every mutant variant. Because IC50-values depends on the substrate concentration and the Km of the substrate, the Michaelis Menten parameters were determined first using substrate tert-butyl N-[(2S)-1-[(4-methyl-2-oxochromen-7-yl)amino]-1-oxo-6-[(2,2,2-trifluoroacetyl)amino]hexan-2-yl]carbamate (Boc-Lys{TFA}-AMC) in a semi continuous enzyme activity assay (Figure 5C and Figure S1). IC50-values were transformed into binding constant Ki using the Cheng-Prusoff equation to enable a fair comparison of ligand affinities to the respective HDAC4 variant:(1) IC50=(1+[S]/Km)×Ki
A serial dilution of TZD in assay buffer (25 mM TRIS-HCl, 75 mM KCl, 0.001% Pluronic F-127, pH 8.0) was incubated with 1 nM cdHDAC4wt in a black 96-well microtiter plate (Greiner). […] The release of fluorogenic substrate was followed in a microplate reader (PherStar Plus, BMG Labtech, Ortenberg, Germany) at 450 nm (λEx = 350 nm) and correlated to enzyme activity. […]

T1 sequence (P56524 648-1057): as above

For `Cc1ccc(C2CC(c3ccccc3)=NN2C(=O)COc2ccc3cc(/C=C4\SC(=O)NC4=O)ccc3c2)cc1` (stereo not drawn) [8g], in assay [1], the residence time was 10 ± 2 min, the forward isomerization rate constant (k2) stood at 0.0038 ± 0.0007 s⁻¹, the koff amounted to 0.0016 ± 0.0003 s⁻¹ and the Ki was found to be 3000 ± 2000 nM. This compound gave an IC50 in assay [2] of 760 ± 80 nM. In addition, in assay [3], the residence time is 18 ± 7 min.

In the case of `O=C(COc1ccc2cc(/C=C3\SC(=O)NC3=O)ccc2c1)Nc1ccc(C(F)(F)F)cc1` [7i], in assay [1], the residence time was 9.3 ± 0.5 min, the “y-intercept of kobs plot (k−3)” value was found to be 0.0018 s⁻¹, the k3 came out at 100 ± 30 M⁻¹ s⁻¹ and the “k−3” value is given as 0.18 ± 0.01 s^−1 (×10^−2). This compound also had a concentration for half-maximal inhibition (IC50) in assay [2] of 1300 ± 100 nM. For the same compound, the residence time in assay [3] amounted to 17 ± 3 min.

Turning to `O=C1NC(=O)/C(=C/c2ccc3cc(OCC(=O)N4N=C(c5ccccc5)CC4c4ccco4)ccc3c2)S1` (stereo not drawn) [8c], in assay [1], the residence time worked out at 12 ± 6 min, the forward isomerization rate constant (k2) worked out at 0.0021 ± 0.0009 s⁻¹, the koff came out at 0.0014 ± 0.0007 s⁻¹ and the kon entry is on record as “(2.1 ± 0.9) × 10^−3 s^−1”. The concentration for half-maximal inhibition (IC50) in assay [2] was determined as 1200 ± 100 nM. In addition, in assay [3], the residence time was determined as 12 ± 1 min.

Regarding `O=C1NC(=O)/C(=C/c2ccc3cc(OCC(=O)N4N=C(c5ccccc5)CC4c4cccs4)ccc3c2)S1` (stereo not drawn) [8i], in assay [1], the residence time was determined as 14 ± 4 min, the forward isomerization rate constant (k2) was determined as 0.0054 ± 0.0005 s⁻¹, the koff was found to be 0.0012 ± 0.0003 s⁻¹ and the Ki was found to be 650 ± 310 nM. In addition, the kon entry in assay [1] was “(5.4 ± 0.5) × 10^−3 s^−1”. In addition, the midpoint of inhibition in assay [2], the IC50, lay at 340 ± 40 nM. Besides, the residence time in assay [3] was 13 ± 8 min.

Turning to `O=C(COc1ccc(/C=C2\SC(=O)NC2=O)cn1)Nc1nc2ccccc2s1` [5w], in assay [1], the residence time was 19 ± 7 min, the “y-intercept of kobs plot (k−3)” value is “(8 ± 3) × 10^−4 s^−1”, the k3 was found to be 1900 ± 100 M⁻¹ s⁻¹ and the “k−3” value is reported as 0.08 ± 0.03 s^−1 (×10^−2). In addition, the mode of inhibition result in assay [4] is listed as “competitive inhibitor”. The residence time in assay [3] was 12 ± 3 min.

Turning to `O=C1NC(=O)/C(=C/c2ccc3cc(OCC(=O)N4N=C(c5ccccc5)CC4c4ccccc4F)ccc3c2)S1` (stereo not drawn) [8b], in assay [1], the residence time is 11 ± 3 min, the forward isomerization rate constant (k2) came out at 0.003 ± 0.0006 s⁻¹, the koff worked out at 0.0015 ± 0.0004 s⁻¹ and the Ki was determined as 650 ± 470 nM. The compound also returned a 50% inhibitory concentration (IC50) in assay [2] of 330 ± 20 nM. The residence time in assay [3] came to 29 ± 3 min.

For the compound `O=C(COc1ccc2cc(/C=C3\SC(=O)NC3=O)ccc2c1)Nc1ncccc1F` [7s], in assay [1], the residence time was determined as 10 ± 1 min, the “y-intercept of kobs plot (k−3)” value is 0.0016 s⁻¹, the k3 was 210 ± 40 M⁻¹ s⁻¹ and the “k−3” value is 0.16 ± 0.02 s^−1 (×10^−2). This compound also yielded an IC50 in assay [2] of 780 ± 80 nM. Besides, in assay [3], the residence time stood at 11 ± 1 min.

Turning to `O=C1NC(=O)/C(=C/c2ccc3cc(OCC(=O)N4N=C(c5ccccc5)CC4c4ccccc4)ccc3c2)S1` (stereo not drawn) [8a], in assay [1], the residence time was determined as 11 ± 4 min, the forward isomerization rate constant (k2) is 0.0049 ± 0.0014 s⁻¹, the koff stood at 0.0015 ± 0.0006 s⁻¹ and the Ki is 2400 ± 1800 nM. In assay [2], this compound gave an IC50 of 770 ± 90 nM. Further, the residence time in assay [3] turned out to be 19 ± 2 min.

Regarding `O=C1NC(=O)/C(=C/c2ccc(OCC(=O)N3N=C(c4ccccc4)CC3c3ccc(C(F)(F)F)cc3)cc2)S1` (stereo not drawn) [4d], in assay [1], the residence time came to 26 ± 11 min, the forward isomerization rate constant (k2) was 0.008 ± 0.001 s⁻¹, the koff came out at 0.0006 ± 0.0003 s⁻¹ and the Ki turned out to be 1700 ± 700 nM. The kon entry in assay [1] is “(8 ± 1) × 10^−3 s^−1”. Besides, in assay [2], the concentration for half-maximal inhibition (IC50) worked out at 790 ± 40 nM. Besides, in assay [3], the residence time is 23 ± 6 min.

Consider `CC(/C=C/C(=O)NO)=C\[C@@H](C)C(=O)c1ccc(N(C)C)cc1` [TSA, Trichostatin A], for which the “log10Ki ratio (Ki mutant / Ki wildtype)” value in assay [5] was “above 1”.

(Values after publication PMC8537711, “Mechanistic Insights into Binding of Ligands with Thiazolidinedione Warhead to Human Histone Deacetylase 4” (Pharmaceuticals, 2021).)
